According to the NIST ThermoML archive (doi:10.1021/je900978x):

Conditions: Fluid (supercritical or subcritical phases), Buoyancy - hydrostatic balance with magnetic suspension - one sinker

CC [ethane]
Conditions	mass density [kg/m3]
298.15 K, 2000 kPa	29.226
298.15 K, 5987 kPa	352.999
298.15 K, 7909 kPa	371.593
298.15 K, 10071 kPa	385.867
298.15 K, 14959 kPa	407.911
298.15 K, 20004 kPa	423.934
298.15 K, 24927 kPa	436.235
298.15 K, 29893 kPa	446.599
298.15 K, 35020 kPa	455.82
298.15 K, 39905 kPa	463.582
298.15 K, 49977 kPa	477.362
298.15 K, 75091 kPa	503.592
298.15 K, 99827 kPa	523.125
298.15 K, 119760 kPa	536.225
298.15 K, 149807 kPa	552.995
350 K, 1999 kPa	22.819
350 K, 29974 kPa	384.889
350 K, 49928 kPa	430.315
350 K, 74959 kPa	464.696
350 K, 100019 kPa	489.111
350 K, 124863 kPa	508.192
350 K, 149906 kPa	524.195
350 K, 172157 kPa	536.528
400 K, 805 kPa	7.452
400 K, 7325 kPa	84.481
400 K, 27286 kPa	311.921
400 K, 48575 kPa	383.533
400 K, 69346 kPa	421.214
400 K, 92289 kPa	450.02
400 K, 117459 kPa	473.901
400 K, 139686 kPa	491.026
400 K, 154657 kPa	501.119
400 K, 166558 kPa	508.474
400 K, 181565 kPa	517.111
400 K, 196062 kPa	524.823
450 K, 1998 kPa	16.685
450 K, 5021 kPa	44.467
450 K, 10001 kPa	96.599
450 K, 20005 kPa	202.282
450 K, 30018 kPa	272.417
450 K, 49974 kPa	346.238
450 K, 69967 kPa	388.105
450 K, 79928 kPa	403.693
450 K, 99962 kPa	429.113
450 K, 119860 kPa	449.29
450 K, 139478 kPa	465.963
